Targets include Glutamate receptor 4 (Homo sapiens, UniProt P48058); Glutamate receptor 2 (Homo sapiens, UniProt P42262); Glutamate receptor 1 (Homo sapiens, UniProt P42261).
Assay [1] deals with Glutamate receptor ionotropic, kainate 2 (Homo sapiens, UniProt Q13002).
The target of assay [2] is T1, Glutamate receptor ionotropic, kainate 5 (Homo sapiens, UniProt Q16478).
T1 sequence (Q16478 whole entry): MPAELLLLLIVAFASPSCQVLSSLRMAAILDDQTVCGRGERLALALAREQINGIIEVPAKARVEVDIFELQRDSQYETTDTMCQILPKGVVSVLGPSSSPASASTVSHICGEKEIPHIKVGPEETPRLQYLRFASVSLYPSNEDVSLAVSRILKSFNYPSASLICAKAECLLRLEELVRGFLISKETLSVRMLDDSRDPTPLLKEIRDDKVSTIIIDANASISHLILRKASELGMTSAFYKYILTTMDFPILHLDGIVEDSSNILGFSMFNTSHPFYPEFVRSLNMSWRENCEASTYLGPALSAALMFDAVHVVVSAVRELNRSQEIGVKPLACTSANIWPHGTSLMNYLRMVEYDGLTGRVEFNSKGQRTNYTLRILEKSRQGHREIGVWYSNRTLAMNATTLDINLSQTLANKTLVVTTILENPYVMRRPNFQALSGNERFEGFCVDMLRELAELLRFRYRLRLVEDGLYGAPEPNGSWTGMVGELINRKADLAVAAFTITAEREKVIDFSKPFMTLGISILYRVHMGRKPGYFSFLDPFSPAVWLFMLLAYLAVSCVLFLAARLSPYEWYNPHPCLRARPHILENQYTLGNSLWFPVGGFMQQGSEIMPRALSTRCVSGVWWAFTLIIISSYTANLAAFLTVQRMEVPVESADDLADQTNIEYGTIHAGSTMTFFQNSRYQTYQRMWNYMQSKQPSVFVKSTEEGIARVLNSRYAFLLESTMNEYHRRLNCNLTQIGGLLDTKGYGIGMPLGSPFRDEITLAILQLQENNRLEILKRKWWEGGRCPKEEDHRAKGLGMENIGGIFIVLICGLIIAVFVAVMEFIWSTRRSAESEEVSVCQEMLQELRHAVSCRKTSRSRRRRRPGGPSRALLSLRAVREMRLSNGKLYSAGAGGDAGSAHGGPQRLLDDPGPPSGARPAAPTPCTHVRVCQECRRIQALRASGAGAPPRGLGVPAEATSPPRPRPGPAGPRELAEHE

Assay [3] concerns the target Glutamate receptor ionotropic, kainate 3 (Homo sapiens, UniProt Q13003).

Structures are written as SMILES.

Glutamate receptor 2, sequence (P42262 whole entry): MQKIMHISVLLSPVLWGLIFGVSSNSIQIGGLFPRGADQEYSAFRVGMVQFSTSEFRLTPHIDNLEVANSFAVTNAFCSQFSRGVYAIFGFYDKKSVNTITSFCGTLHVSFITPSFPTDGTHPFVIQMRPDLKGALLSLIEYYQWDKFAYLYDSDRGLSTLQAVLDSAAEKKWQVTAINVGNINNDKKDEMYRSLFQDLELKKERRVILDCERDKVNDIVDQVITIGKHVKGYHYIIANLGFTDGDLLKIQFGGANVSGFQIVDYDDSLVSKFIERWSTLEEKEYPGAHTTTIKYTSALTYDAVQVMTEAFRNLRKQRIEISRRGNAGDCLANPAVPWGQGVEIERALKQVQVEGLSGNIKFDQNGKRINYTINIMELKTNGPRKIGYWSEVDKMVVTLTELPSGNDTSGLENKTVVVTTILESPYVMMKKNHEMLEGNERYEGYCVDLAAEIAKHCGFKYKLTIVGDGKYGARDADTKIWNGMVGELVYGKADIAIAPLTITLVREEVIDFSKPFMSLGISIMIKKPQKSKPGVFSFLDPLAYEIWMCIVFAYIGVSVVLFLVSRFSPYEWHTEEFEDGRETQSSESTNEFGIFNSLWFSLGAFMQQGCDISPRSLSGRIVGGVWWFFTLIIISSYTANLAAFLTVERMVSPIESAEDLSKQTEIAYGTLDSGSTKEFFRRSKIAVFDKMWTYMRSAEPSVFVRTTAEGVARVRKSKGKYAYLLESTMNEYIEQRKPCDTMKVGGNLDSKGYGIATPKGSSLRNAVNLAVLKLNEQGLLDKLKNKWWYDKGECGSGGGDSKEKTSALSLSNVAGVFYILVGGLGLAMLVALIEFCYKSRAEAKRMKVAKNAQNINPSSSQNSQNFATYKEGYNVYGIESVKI
Glutamate receptor ionotropic, kainate 2, sequence (Q13002 whole entry): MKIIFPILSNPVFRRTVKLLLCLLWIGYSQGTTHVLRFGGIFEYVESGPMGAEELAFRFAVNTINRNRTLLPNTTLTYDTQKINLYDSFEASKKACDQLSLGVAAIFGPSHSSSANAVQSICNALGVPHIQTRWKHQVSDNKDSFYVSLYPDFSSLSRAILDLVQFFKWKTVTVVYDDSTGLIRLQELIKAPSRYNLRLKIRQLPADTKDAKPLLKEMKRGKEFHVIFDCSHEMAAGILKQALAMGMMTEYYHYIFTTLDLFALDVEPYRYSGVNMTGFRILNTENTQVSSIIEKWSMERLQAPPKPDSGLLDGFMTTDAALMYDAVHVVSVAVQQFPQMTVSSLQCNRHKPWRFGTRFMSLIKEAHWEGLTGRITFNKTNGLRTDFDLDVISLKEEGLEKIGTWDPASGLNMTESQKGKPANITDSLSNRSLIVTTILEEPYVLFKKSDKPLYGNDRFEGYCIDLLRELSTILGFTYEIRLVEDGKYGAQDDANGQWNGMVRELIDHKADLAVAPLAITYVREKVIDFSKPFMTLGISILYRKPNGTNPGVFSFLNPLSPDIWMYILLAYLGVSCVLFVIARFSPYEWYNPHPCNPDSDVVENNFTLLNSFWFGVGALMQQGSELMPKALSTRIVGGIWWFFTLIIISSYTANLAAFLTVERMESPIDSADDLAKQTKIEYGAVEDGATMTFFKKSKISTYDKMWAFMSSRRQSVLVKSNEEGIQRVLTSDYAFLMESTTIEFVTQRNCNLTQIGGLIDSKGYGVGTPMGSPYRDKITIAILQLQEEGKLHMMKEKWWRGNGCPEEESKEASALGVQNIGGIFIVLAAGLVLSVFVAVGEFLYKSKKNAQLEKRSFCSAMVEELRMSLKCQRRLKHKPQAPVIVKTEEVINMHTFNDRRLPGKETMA
Glutamate receptor 4, sequence (P48058 whole entry): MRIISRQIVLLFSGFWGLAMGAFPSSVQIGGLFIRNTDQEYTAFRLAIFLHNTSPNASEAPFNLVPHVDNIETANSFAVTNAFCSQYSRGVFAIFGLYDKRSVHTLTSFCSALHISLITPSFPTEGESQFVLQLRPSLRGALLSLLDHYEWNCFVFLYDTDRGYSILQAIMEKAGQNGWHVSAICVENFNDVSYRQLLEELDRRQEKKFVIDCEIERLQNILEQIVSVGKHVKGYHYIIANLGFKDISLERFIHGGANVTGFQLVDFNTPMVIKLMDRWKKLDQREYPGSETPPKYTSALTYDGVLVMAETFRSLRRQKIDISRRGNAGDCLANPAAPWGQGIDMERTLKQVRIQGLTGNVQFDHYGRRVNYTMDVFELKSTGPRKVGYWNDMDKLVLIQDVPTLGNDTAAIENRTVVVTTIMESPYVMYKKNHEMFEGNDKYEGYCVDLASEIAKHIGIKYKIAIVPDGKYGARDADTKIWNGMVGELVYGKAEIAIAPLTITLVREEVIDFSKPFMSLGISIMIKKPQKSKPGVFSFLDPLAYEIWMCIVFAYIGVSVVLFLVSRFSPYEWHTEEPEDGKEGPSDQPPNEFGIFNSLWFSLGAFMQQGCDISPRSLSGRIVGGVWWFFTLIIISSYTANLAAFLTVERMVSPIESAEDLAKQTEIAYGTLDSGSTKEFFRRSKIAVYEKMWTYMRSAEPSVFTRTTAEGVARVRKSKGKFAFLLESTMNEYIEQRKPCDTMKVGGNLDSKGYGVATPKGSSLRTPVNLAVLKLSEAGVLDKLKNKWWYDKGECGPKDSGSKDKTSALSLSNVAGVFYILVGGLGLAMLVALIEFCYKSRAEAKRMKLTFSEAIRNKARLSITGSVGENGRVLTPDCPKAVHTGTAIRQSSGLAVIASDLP
Glutamate receptor 1, sequence (P42261 whole entry): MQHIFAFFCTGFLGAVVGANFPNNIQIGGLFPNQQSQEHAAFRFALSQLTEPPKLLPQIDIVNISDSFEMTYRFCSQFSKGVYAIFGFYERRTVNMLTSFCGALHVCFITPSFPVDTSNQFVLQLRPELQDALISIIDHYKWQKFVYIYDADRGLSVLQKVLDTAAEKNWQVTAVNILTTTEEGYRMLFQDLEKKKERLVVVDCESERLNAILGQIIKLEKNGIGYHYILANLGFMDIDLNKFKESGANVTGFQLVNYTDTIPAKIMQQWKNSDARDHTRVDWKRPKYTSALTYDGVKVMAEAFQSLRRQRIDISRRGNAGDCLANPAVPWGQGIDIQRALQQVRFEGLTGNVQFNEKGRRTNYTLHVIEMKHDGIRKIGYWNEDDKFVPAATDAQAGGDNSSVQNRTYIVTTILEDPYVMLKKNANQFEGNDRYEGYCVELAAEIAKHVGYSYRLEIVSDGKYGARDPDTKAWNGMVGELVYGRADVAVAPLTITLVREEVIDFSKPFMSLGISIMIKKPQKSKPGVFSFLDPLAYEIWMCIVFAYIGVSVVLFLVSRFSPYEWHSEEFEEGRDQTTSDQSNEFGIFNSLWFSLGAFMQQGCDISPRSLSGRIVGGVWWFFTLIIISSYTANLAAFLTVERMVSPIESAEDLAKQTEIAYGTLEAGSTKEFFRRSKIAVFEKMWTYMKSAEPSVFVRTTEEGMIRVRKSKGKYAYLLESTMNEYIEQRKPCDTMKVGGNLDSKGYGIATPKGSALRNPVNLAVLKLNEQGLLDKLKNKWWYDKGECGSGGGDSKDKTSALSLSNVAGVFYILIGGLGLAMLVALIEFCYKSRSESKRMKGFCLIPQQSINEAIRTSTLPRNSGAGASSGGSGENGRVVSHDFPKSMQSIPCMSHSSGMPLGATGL
Glutamate receptor ionotropic, kainate 3, sequence (Q13003 whole entry): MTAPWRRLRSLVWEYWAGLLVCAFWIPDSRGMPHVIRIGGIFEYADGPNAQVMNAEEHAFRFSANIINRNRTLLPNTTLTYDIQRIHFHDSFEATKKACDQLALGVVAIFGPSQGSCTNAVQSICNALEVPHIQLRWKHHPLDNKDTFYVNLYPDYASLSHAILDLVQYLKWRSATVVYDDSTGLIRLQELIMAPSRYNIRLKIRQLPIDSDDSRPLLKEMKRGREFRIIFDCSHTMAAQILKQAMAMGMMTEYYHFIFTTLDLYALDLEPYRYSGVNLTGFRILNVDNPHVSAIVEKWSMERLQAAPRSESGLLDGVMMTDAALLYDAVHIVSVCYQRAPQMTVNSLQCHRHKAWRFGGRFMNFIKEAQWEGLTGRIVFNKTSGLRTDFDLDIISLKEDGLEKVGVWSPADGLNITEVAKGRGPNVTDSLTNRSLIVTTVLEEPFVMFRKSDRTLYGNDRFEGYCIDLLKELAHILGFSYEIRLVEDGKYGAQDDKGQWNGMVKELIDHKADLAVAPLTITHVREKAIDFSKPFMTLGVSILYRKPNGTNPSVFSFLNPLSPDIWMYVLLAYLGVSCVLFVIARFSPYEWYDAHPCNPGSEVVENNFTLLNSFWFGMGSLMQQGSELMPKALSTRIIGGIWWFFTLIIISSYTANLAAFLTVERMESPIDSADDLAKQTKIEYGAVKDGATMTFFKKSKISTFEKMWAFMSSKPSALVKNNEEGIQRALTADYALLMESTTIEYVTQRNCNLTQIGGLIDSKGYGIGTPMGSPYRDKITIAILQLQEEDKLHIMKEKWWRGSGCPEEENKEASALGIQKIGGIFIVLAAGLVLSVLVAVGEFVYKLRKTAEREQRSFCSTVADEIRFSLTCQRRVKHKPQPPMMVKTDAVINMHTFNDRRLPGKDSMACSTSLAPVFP

With `O=C(O)[C@@H]1C[C@H]2C[C@@H](CCc3nn[nH]n3)CC[C@H]2CN1`, the Ki in assay [1] is more than 10 µM; on Glutamate receptor 4, more than 10 µM; in assay [2] it was 4.2 µM; in assay [3], more than 10 µM.
Consider `O=C(O)c1ccc(C[C@H]2CC[C@H]3CN[C@H](C(=O)O)C[C@H]3C2)cc1` [LY 382884], for which the Ki in assay [1] is more than 10 µM; at Glutamate receptor 4 it was more than 10 µM; at Glutamate receptor 2, more than 10 µM; in assay [2], 4 µM; in assay [3], more than 10 µM; on Glutamate receptor 1, more than 10 µM.
`O=C(O)[C@@H]1C[C@H]2C[C@@H](Oc3ccccc3-c3nnn[nH]3)CC[C@H]2CN1` [LY-458545] yielded a Ki in assay [2] of 1.69 µM.
For `O=C(O)[C@@H]1C[C@H]2CC(COCc3nnn[nH]3)CC[C@H]2CN1` (some centres undefined) [LY-294486], the Ki was more than 10 µM at Glutamate receptor 2 and 3.06 µM in assay [2].
The compound `O=C(O)[C@@H]1C[C@H]2C[C@@H](Nc3ccccc3-c3nnn[nH]3)CC[C@H]2CN1` [LY 457691] yielded a Ki in assay [2] of 1.55 µM.
In assay [2], `O=C(O)[C@@H]1C[C@H]2C[C@@H](CS(=O)(=O)c3nnc[nH]3)CC[C@H]2CN1` [LY-302679] returned a Ki of 3.41 µM.
`CCC(C)OC(=O)[C@@H]1C[C@H]2C[C@@H](Oc3ccccc3-c3nnn[nH]3)CC[C@H]2CN1` (some centres undefined) [LY-467711]: the Ki on Glutamate receptor 2 is more than 10 µM; in assay [2] it was 7.4 µM.
Take `O=C(O)C1CC(F)(F)CN1C[C@H]1CC[C@H]2CN[C@H](C(=O)O)C[C@H]2C1` (some centres undefined) [LY-466195]: the Ki in assay [1] is more than 10 µM; on Glutamate receptor 4 it was more than 10 µM; on Glutamate receptor 2, more than 10 µM; in assay [2] it was 0.05 µM; on Glutamate receptor 1 it was more than 10 µM.
For `CCC(CC)COC(=O)[C@@H]1C[C@H]2C[C@@H](Nc3ccccc3-c3nnn[nH]3)CC[C@H]2CN1` [LY-525327], the Ki (at Glutamate receptor 2; in assay [2]) was more than 10 µM throughout.

As usually defined, the Ki is a measure of affinity in units of concentration, obtained from inhibition or displacement. Read a low Ki as a stronger hold on the target.

For the origin of these results see BindingDB's records for doi:10.1124/jpet.106.101428 (Eli Lilly, 2006).
